Read-outs that look alike come from different tables or passages of the source.
What was measured:
GPR139 = target: T1, GPR139 (Homo sapiens, UniProt Q6DWJ6); assay: GPR139 Agonist titration / agonist counterscreen assay (calcium detection, HEK-GPR139 cells); format: cell-based; parameters: expressed in transfected cells; host or cells: HEK Aequorin cells, Maxcyte transient transfection; settings: GPR139 Agonist Activity; for Averaged Max % Response (±St. Dev.): activity relative to known control; for EC50: read-out: EC50
T1 sequence (Q6DWJ6 1-353): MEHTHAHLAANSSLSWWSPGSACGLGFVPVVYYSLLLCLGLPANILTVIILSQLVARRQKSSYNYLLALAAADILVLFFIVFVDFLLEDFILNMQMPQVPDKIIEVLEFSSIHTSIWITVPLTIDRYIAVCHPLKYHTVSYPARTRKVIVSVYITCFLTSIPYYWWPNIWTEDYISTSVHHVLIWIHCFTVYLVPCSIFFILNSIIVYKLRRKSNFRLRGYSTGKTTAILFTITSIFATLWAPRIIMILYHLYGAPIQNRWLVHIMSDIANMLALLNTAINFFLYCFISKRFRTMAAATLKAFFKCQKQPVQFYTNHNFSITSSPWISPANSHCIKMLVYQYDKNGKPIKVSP
Method: GPR activity was assessed using a calcium detection assay. […] Negative control samples were treated with DMSO. […] Intracellular calcium was measured using Calcium 5.

parental HEK cells = assay: HEK parental Agonist Counterscreen Assay (non-transfected cells); format: cell-based; settings: for Averaged Max % Response (±St. Dev.): activity relative to known control
Text: The high control for the agonist counterscreen was Forskolin not acetylcholine.

[1] = values printed in E-notation without unit
[2] = Homo sapiens, HEK293, HEK Agonist Activity section of Table 4 (parental HEK counterscreen)
[3] = Homo sapiens, HEK293, HEK Agonist Activity, parental non-transfected HEK cells
[4] = HEK Agonist Activity section of Table 4 (parental HEK counterscreen)

| Structure (SMILES) | Averaged Max % Response (±St. Dev.) (GPR139) [%] | Lipophilic Efficiency (logD) (GPR139; based on logD) | Lipophilic Efficiency (logP) (GPR139; based on logP) | Hill Slope (GPR139; fitted dose-response curve) | Efficiency Ligand (GPR139; ligand efficiency) | EC50 (GPR139; [1]) [nM] | Lipophilic Efficiency (logD) (parental HEK cells; HEK Agonist Activity section) | Lipophilic Efficiency (logP) (parental HEK cells; HEK Agonist Activity section) | Averaged Max % Response (±St. Dev.) (parental HEK cells; HEK Agonist Activity section) [%] | EC50 (parental HEK cells; [2]) [nM] | Lipophilic Efficiency (logD) (parental HEK cells; HEK Agonist Activity) | Lipophilic Efficiency (logP) (parental HEK cells; HEK Agonist Activity) | Averaged Max % Response (±St. Dev.) (parental HEK cells; HEK Agonist Activity) [%] | EC50 (parental HEK cells; [3]) [nM] | Efficiency Ligand (GPR139) | Hill Slope (GPR139) | Lipophilic Efficiency (logD) (GPR139) | Lipophilic Efficiency (logP) (GPR139) | EC50 (GPR139; HEK-GPR139 cells) [nM] | EC50 (parental HEK cells; [4]) [nM] |
| --- | --- | --- | --- | --- | --- | --- | --- | --- | --- | --- | --- | --- | --- | --- | --- | --- | --- | --- | --- | --- |
| CC(C(=O)NCCC1=CCCCC1)n1c(=O)c2cccn2c2ccccc21 (centres unmarked) [SR-01000142419] | 123.62 ± 30.65 | 4.22 | 4.22 | 0.32 | 0.36 | 106 | 2.10 | 2.10 | −9.79 ± 12.86 | > 14100 | – | – | – | – | – | – | – | – | – | – |
| O=C(CC(C(=O)N1CCc2ccccc21)n1ccnc1)NCC1COc2ccccc2O1 (centres unmarked) [SR-01000144615] | 108.00 ± 3.42 | 6.43 | 6.38 | 4.63 | 0.35 | 10.3 | – | – | – | – | 3.29 | 3.24 | −9.40 ± 4.48 | > 14100 | – | – | – | – | – | – |
| O=C(CC(C(=O)N1CCc2ccccc21)n1ccnc1)N1CCCCCC1 (centres unmarked) [SR-01000144627] | 93.44 ± 12.43 | 4.94 | 4.88 | 1.08 | 0.34 | 229 | 3.15 | 3.09 | 28.51 ± 2.67 | > 14100 | – | – | – | – | – | – | – | – | – | – |
| O=C(CN1N=C(c2ccc(Cl)cc2)CCC1=O)NCCN1CCc2ccccc2C1 [SR-01000145135] | 81.84 ± 7.77 | – | – | – | – | – | 2.82 | 2.34 | −17.80 ± 4.24 | – | – | – | – | – | 0.30 | 0.84 | 4.49 | 4.01 | 301 | > 14100 |
| Cc1ccc(CCNC(=O)Cn2nc(-c3ccccc3)ccc2=O)cc1 [SR-01000145157] | 83.58 ± 17.45 | 3.85 | 3.85 | 0.58 | 0.37 | 140 | 1.85 | 1.85 | 17.61 ± 4.99 | – | – | – | – | – | – | – | – | – | – | > 14100 |
| Cc1ccccc1CS(=O)(=O)CCC(=O)NC(C)c1ccccc1 (centres unmarked) [SR-01000145393] | 97.82 ± 12.25 | 4.42 | 4.42 | 0.70 | 0.40 | 116 | 2.34 | 2.34 | 10.41 ± 2.89 | > 14100 | – | – | – | – | – | – | – | – | – | – |
| Cc1ccc(CNC(=O)Cn2nc(-c3ccc(C)cc3)ccc2=O)cc1 [SR-01000145456] | 88.21 ± 16.68 | – | – | – | – | – | 1.62 | 1.62 | −11.57 ± 15.53 | > 14100 | – | – | – | – | 0.32 | 1.42 | 2.66 | 2.66 | 1300 | – |
| CCCCC(O)CCNC(=O)C1CC(=O)N(CCc2ccc(C)cc2)C1 (centres unmarked) [SR-01000145701] | 114.02 ± 14.51 | – | – | – | – | – | 4.13 | 2.54 | 10.54 ± 1.83 | > 14100 | – | – | – | – | 0.34 | 0.99 | 5.67 | 4.07 | 414 | – |
| COc1ccc(C2=NN(CC(=O)NCCCN(C)c3ccccc3)C(=O)CC2)cc1 [SR-01000145949] | 122.18 ± 22.07 | 5.74 | 5.73 | 1.04 | 0.36 | 21.5 | – | – | – | – | 2.92 | 2.92 | 2.57 ± 15.21 | > 14100 | – | – | – | – | – | – |
| CN(C)c1ccc(NC(=O)Cn2cc(C=O)c3ccccc32)cc1 [SR-01000146281] | 89.20 ± 13.55 | – | – | – | – | – | 1.82 | 1.82 | 8.26 ± 4.28 | – | – | – | – | – | 0.37 | 1.64 | 3.32 | 3.32 | 449 | > 14100 |
| CC1CCCC(NC(=O)CN2CCCN(Cc3ccc(F)cc3Cl)C2=O)C1C (centres unmarked) [SR-01000146420] | 113.46 ± 20.46 | 4.29 | 4.29 | 1.05 | 0.38 | 29.6 | – | – | – | – | 1.61 | 1.61 | 20.27 ± 3.59 | > 14100 | – | – | – | – | – | – |
| O=C(CN1CCCN(Cc2ccc(F)cc2Cl)C1=O)NC1CCCCCC1 [SR-01000146442] | 108.38 ± 13.78 | 4.80 | 4.80 | 0.79 | 0.41 | 14.9 | – | – | – | – | 1.82 | 1.82 | −6.48 ± 10.66 | > 14100 | – | – | – | – | – | – |
| Cc1ccc(CN2CCCN(CC(=O)NC3CCCCCCC3)C2=O)c(Cl)c1 [SR-01000146444] | 112.24 ± 16.06 | 3.54 | 3.54 | 0.93 | 0.35 | – | 1.38 | 1.38 | 20.98 ± 2.11 | > 14100 | – | – | – | – | – | – | – | – | – | – |
| O=C(CN1CCCN(Cc2ccc(F)cc2Cl)C1=O)NC1CCCC1 [SR-01000146446] | 113.08 ± 17.13 | – | – | – | – | – | 2.71 | 2.71 | −2.89 ± 4.65 | – | – | – | – | – | 0.37 | 0.77 | 4.40 | 4.40 | 289 | > 14100 |
| O=C(CN1CCCN(Cc2ccc(F)cc2Cl)C1=O)NC1CCCCC1 [SR-01000146448] | 112.56 ± 16.12 | – | – | – | – | – | 2.27 | 2.27 | 10.11 ± 11.28 | – | – | – | – | – | 0.35 | 0.92 | 3.97 | 3.97 | 281 | > 14100 |
| O=C(CC1Nc2ccccc2NC1=O)NCC1COc2ccccc2O1 (centres unmarked) [SR-01000146516] | 88.18 ± 13.52 | 5.60 | 5.60 | 0.77 | 0.36 | 196 | 3.75 | 3.75 | −2.96 ± 7.51 | > 14100 | – | – | – | – | – | – | – | – | – | – |
| Cc1ccc(CN2CCN(CC(=O)N3CC(C)CC(C)C3)C2=O)cc1 (centres unmarked) [SR-01000150389] | 112.97 ± 21.84 | 4.43 | 4.43 | 0.95 | 0.38 | 189 | 2.56 | 2.56 | 0.25 ± 10.83 | – | – | – | – | – | – | – | – | – | – | > 14100 |
| CCN(CCCNC(=O)CN1CCC(Cc2ccccc2C)C1=O)c1cccc(C)c1 (centres unmarked) [SR-01000150393] | 97.57 ± 16.88 | 3.55 | 3.54 | 1.18 | 0.31 | – | 1.45 | 1.43 | 10.10 ± 9.60 | > 14100 | – | – | – | – | – | – | – | – | – | – |
| O=C(CC1CCN(Cc2ccccc2O)C1=O)C1CCC(c2cccc(O)c2)C(O)C1 (centres unmarked) [SR-01000151350] | 101.74 ± 19.26 | – | – | – | – | – | 1.47 | 1.47 | 12.46 ± 7.98 | > 14100 | – | – | – | – | 0.29 | 1.51 | 3.10 | 3.10 | 328 | – |

Source: patent US20250099420A1, “SMALL MOLECULE MODULATORS OF GPR139 COMPLEX” (University of Florida Research Foundation, Incorporated, priority 2022, published 2025)
